One block for each molecule: values may come before it. Calls of active or inactive are those of the source.
Legend:
Cytochrome P450 2C9 = Cytochrome P450 2C9 (Homo sapiens, UniProt P11712); conditions: Potency
Beta-galactosidase = Beta-galactosidase (Escherichia coli, UniProt Q8VNN2); assay: detection-enzyme interference by beta-gal modulators – biochemical, E. coli enzyme, set 3, artefact control for CCR6 antagonist project, dose response (AID 504712); type: functional
[1] = Luminescence Cell-Based Dose Retest to Confirm Inhibitors of Cancer Stem Cells. [Related pubchem assays (depositor defined):AID2717, AID2721]; type: functional; conditions: Homo sapiens
[2] = molecular target: Voltage-dependent T-type calcium channel subunit alpha-1H (Homo sapiens, UniProt O95180); type: functional;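 also: channel activity triggered by adding a high calcium stimulation buffer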
[3] = molecular target: Glucose-6-phosphate 1-dehydrogenase (Homo sapiens, UniProt P11413); assay: inhibition of Homo sapiens G6PD, dose series – biochemical, fluorescence, selectivity assay for P. falciparum G6PD inhibitor project, dose response (AID 504792); type: functional
Genome polyprotein = Genome polyprotein (dengue virus type 2, UniProt P29990); assay: flavivirus cap methylation enzyme inhibition – biochemical, confirmation dose response, primary screen (AID 588689); type: functional
[4] = viability loss in THP-1 monocytes – THP-1 cells, cytotoxicity control for Vif-APOBEC3G degradation inhibitor project, dose response (AID 1117359); type: functional; conditions: THP-1
Hexokinase HKDC1 = molecular target: T1, Hexokinase HKDC1 (Homo sapiens, UniProt Q2TB90); assay: inhibition of HKDC1 glucose phosphorylation – biochemical, W721R variant, dose response (AID 504729); type: functional
T1 sequence (Q2TB90 whole entry): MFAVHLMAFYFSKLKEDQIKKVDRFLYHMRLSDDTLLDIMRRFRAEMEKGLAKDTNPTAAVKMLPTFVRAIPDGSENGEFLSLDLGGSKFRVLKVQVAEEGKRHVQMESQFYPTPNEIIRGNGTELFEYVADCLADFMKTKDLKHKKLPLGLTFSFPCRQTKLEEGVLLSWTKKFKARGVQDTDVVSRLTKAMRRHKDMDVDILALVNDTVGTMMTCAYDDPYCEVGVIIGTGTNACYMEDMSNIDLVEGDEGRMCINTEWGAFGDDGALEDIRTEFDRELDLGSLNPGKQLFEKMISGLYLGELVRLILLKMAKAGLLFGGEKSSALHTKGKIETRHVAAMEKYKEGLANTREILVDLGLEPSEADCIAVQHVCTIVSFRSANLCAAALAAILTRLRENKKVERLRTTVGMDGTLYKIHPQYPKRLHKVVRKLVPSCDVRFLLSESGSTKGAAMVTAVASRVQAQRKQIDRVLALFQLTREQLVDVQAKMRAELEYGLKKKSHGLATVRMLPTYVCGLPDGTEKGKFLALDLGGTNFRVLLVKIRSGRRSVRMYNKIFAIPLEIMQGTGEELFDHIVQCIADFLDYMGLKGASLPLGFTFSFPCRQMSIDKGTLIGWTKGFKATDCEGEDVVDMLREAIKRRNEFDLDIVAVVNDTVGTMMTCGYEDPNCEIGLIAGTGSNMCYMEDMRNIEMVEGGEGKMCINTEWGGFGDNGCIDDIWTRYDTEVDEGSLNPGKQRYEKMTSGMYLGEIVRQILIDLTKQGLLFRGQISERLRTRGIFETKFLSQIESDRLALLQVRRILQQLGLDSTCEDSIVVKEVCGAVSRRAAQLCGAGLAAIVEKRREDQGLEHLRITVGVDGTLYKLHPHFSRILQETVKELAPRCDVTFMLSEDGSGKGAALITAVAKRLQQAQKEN

Chain of Beta-galactosidase (Q8VNN2 whole entry): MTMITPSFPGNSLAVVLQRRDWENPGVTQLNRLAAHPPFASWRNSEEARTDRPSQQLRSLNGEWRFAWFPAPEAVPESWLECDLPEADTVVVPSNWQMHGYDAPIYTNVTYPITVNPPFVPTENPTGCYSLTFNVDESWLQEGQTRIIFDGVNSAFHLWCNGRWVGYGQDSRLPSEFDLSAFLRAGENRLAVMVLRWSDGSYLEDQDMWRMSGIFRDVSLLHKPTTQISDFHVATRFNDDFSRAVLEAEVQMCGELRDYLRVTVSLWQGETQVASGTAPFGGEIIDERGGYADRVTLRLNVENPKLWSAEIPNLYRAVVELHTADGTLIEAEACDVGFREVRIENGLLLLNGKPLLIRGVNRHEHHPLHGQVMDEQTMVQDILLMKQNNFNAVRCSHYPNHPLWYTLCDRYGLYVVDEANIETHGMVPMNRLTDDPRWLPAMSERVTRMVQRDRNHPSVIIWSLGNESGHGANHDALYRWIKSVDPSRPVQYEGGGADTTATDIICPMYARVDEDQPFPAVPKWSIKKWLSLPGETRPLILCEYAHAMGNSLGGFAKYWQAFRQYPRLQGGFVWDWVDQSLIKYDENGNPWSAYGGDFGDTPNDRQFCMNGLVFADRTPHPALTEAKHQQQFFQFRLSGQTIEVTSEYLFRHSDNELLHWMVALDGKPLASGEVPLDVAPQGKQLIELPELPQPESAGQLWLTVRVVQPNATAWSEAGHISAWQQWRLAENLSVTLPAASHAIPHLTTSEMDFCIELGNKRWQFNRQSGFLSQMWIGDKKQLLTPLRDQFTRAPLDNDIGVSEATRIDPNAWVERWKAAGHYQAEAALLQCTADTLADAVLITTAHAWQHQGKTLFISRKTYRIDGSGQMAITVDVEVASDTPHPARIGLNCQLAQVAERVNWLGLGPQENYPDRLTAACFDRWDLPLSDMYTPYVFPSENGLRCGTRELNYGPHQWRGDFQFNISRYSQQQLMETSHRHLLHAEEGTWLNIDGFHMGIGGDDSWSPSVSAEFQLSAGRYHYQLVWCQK
Chain of Cytochrome P450 2C9 (P11712 whole entry): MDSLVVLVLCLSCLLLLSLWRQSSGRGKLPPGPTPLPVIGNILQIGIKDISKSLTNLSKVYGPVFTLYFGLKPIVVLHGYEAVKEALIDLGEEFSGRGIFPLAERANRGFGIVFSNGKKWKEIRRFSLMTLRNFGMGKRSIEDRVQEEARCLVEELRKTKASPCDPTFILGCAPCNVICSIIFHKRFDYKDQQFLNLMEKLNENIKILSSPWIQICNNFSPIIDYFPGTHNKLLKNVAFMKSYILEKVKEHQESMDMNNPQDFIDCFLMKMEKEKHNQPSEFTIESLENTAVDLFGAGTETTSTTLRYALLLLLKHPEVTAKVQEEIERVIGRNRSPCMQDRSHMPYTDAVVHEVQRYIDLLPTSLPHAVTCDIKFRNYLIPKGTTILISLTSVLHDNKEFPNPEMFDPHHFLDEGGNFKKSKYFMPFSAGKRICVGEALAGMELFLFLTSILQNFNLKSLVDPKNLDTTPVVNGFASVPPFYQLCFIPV
Chain of Voltage-dependent T-type calcium channel subunit alpha-1H (O95180 whole entry): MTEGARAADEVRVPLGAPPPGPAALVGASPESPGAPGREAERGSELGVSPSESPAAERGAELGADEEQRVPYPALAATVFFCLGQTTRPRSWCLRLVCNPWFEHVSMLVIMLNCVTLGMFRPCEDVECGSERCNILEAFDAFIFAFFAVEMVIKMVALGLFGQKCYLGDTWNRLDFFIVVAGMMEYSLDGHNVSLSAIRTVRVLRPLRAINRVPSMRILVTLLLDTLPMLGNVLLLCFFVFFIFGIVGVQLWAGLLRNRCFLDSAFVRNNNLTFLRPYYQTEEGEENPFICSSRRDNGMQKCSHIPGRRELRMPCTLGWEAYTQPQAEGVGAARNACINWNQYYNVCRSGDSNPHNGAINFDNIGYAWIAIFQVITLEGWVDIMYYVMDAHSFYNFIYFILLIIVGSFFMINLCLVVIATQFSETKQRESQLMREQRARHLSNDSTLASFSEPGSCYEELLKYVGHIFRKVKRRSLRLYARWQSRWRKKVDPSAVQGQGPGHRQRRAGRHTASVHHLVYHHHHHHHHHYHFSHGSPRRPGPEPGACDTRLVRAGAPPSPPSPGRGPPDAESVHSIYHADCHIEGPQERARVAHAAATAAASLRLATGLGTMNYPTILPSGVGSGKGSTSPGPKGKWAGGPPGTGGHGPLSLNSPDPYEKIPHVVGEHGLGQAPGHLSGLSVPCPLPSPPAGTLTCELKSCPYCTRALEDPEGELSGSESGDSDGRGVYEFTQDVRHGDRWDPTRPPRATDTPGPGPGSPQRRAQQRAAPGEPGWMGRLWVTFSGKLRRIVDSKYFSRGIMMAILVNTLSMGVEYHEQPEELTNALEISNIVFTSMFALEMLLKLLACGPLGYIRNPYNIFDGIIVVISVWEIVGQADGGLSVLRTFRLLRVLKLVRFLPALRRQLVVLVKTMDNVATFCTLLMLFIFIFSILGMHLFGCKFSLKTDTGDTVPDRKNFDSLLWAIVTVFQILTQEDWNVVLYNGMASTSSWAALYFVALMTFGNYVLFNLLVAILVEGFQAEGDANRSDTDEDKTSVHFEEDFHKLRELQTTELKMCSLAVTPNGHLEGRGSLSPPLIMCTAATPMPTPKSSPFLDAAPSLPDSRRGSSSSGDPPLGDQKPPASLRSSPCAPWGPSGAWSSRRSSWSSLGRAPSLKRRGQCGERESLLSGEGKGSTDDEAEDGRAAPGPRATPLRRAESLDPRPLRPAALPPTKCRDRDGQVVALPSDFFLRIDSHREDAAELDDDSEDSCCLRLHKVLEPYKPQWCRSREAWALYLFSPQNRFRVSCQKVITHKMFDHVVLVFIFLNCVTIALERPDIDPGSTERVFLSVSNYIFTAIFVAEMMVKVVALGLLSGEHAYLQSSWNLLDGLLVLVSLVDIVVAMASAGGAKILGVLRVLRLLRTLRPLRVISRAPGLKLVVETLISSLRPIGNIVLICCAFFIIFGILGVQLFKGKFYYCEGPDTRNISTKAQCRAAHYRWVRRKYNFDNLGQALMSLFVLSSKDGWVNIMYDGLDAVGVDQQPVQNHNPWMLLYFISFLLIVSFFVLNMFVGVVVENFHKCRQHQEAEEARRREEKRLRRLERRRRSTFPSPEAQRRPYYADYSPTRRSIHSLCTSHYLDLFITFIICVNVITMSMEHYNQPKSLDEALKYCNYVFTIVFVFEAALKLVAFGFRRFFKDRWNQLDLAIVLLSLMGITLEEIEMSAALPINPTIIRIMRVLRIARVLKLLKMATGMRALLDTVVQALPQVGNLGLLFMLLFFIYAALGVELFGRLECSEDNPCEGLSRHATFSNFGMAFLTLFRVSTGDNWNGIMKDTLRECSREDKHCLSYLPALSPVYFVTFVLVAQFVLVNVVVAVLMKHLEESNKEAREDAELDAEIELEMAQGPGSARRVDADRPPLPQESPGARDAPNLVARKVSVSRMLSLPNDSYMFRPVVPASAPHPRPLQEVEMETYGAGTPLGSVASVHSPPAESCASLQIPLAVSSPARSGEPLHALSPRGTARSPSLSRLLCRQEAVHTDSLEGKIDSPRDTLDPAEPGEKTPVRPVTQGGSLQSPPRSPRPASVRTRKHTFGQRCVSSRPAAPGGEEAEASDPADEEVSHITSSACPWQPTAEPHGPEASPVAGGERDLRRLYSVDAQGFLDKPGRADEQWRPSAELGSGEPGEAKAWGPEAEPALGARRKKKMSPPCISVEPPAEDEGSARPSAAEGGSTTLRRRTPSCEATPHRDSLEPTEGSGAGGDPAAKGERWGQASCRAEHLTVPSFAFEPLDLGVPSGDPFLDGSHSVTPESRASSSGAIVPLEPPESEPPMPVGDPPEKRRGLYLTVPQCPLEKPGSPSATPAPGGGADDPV
Chain of Genome polyprotein (P29990 2492-3391 limits assumed): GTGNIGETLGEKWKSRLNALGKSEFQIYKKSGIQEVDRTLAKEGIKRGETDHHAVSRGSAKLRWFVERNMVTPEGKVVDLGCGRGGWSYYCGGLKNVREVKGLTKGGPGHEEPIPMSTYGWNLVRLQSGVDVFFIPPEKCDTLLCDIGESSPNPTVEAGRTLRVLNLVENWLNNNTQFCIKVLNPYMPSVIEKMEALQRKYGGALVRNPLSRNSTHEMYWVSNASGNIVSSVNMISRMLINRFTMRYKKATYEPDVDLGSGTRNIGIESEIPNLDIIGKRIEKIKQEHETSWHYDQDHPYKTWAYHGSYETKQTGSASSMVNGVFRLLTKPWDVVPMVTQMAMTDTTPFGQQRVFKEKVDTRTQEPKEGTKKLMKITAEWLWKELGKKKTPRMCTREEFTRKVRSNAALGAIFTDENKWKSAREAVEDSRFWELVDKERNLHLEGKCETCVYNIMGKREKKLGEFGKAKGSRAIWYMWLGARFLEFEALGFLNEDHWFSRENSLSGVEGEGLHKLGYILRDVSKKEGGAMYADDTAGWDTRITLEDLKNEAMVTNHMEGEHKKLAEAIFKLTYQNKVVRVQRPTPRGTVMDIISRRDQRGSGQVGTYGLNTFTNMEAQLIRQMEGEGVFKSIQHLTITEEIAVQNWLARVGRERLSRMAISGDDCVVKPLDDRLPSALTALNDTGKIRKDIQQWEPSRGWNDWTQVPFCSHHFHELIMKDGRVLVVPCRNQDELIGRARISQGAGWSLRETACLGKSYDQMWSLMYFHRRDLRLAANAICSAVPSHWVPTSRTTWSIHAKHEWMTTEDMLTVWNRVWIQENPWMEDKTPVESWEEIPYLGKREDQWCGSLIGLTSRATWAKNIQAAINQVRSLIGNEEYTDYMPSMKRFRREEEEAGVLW

- AC50 (Cytochrome P450 2C9): 31.6 µM (inconclusive)
Compound: COc1ccc(-c2oc3cc(OC)c(OC(C)=O)c(OC)c3c(=O)c2OC)cc1OC(C)=O

Compound: Cc1ccc(C(NC(=O)C(C)C)c2cc([N+](=O)[O-])c3cccnc3c2O)cc1 (centres undefined)
- IC50 (Beta-galactosidase): > 66.6 µM (inactive)
- AC50 [1]: 1.02 µM (active)

- EC50 [2]: 12.9 µM (active)
Compound: CCC(=O)N1CCN(c2ccccc2NC(=O)Cc2ccccc2)CC1

Compound: COC1=C(OC)C(=O)C(Sc2ccc3ccccc3c2)=CC1=O
- IC50 (Beta-galactosidase): > 66.6 µM (inactive)
- IC50 [3]: 18.7 µM (active)
- IC50 (Genome polyprotein): 5.09 µM (active)
- CC50 [4]: > 40 µM (active)
- IC50 (Hexokinase HKDC1): 3.33 µM (active)

Reference: ChEMBL document CHEMBL1201862, “PubChem BioAssay data set” (2004)
